Where “and” joins values, the source holds several entries; their conditions need not be identical. Identical values can stand only once. Inconclusive results and toxic doses are left out.
Tested on: BDF1 mice, P388 leukemia ip, median survival T/C
Assay: NCI In Vivo Anticancer Drug Screen. Data for tumor model P388 Leukemia (intraperitoneal) in B6D2F1 (BDF1) mice
Details: endpoint: median survival time, higher = longer survival
How it was run: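 Compound-treated tumour-bearing mice were compared with vehicle-treated controls. Survival was recorded, and the value is the treated-group measurement divided by the control-group measurement (T/C).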

[1] = dose: 100.0 mg/kg/injection, schedule: Q01DX009 (ip), vehicle: saline with Tween-80
[2] = dose: 100.0 mg/kg/injection, schedule: Q04DX003 (ip), vehicle: saline with Tween-80
[3] = dose: 200.0 mg/kg/injection, schedule: Q01DX009 (ip), vehicle: saline with Tween-80
[4] = dose: 200.0 mg/kg/injection, schedule: Q04DX003 (ip), vehicle: saline with Tween-80
[5] = dose: 400.0 mg/kg/injection, schedule: Q04DX003 (ip), vehicle: saline with Tween-80
[6] = dose: 100.0 mg/kg/injection, schedule: Q04DX003 (ip), vehicle: saline
[7] = dose: 200.0 mg/kg/injection, schedule: Q04DX003 (ip), vehicle: saline
[8] = dose: 50.0 mg/kg/injection, schedule: Q01DX009 (ip), vehicle: Klucel (hydroxypropylcellulose) (HPC)
[9] = dose: 100.0 mg/kg/injection, schedule: Q01DX009 (ip), vehicle: Klucel (hydroxypropylcellulose) (HPC)
[10] = dose: 200.0 mg/kg/injection, schedule: Q01DX009 (ip), vehicle: Klucel (hydroxypropylcellulose) (HPC)
[11] = dose: 50.0 mg/kg/injection, schedule: Q01DX009 (ip), vehicle: saline with Tween-80
[12] = dose: 100.0 mg/kg/injection, schedule: Q04DX003 (ip), vehicle: Klucel (hydroxypropylcellulose) (HPC)
[13] = dose: 200.0 mg/kg/injection, schedule: Q04DX003 (ip), vehicle: Klucel (hydroxypropylcellulose) (HPC)
[14] = dose: 400.0 mg/kg/injection, schedule: Q04DX003 (ip), vehicle: Klucel (hydroxypropylcellulose) (HPC)
[15] = dose: 50.0 mg/kg/injection, schedule: Q01DX009 (ip), vehicle: saline
[16] = dose: 50.0 mg/kg/injection, schedule: Q04DX003 (ip), vehicle: saline

## NC(N)=Nc1ccc(C(=O)Oc2ccc([N+](=O)[O-])cc2CN2CCCCC2)cc1
dose: 0.78 mg/kg/injection, schedule: Q01DX009 (ip), vehicle: water
  T/C: 101 % of control
dose: 0.78 mg/kg/injection, schedule: Q04DX003 (ip), vehicle: water
  T/C: 100 % of control
dose: 1.56 mg/kg/injection, schedule: Q01DX009 (ip), vehicle: water
  T/C: 93 % of control
dose: 1.56 mg/kg/injection, schedule: Q04DX003 (ip), vehicle: water
  T/C: 105 % of control
dose: 3.12 mg/kg/injection, schedule: Q01DX009 (ip), vehicle: water
  T/C: 100 % of control
dose: 3.12 mg/kg/injection, schedule: Q04DX003 (ip), vehicle: water
  T/C: 113 % of control
dose: 6.25 mg/kg/injection, schedule: Q01DX009 (ip), vehicle: water
  T/C: 104 % of control
dose: 6.25 mg/kg/injection, schedule: Q04DX003 (ip), vehicle: water
  T/C: 104 % of control
dose: 12.5 mg/kg/injection, schedule: Q04DX003 (ip), vehicle: water
  T/C: 95 % of control

## COc1ccc(C2=CCCCC2)cc1
[1]
  T/C: 103 % of control
[2]
  T/C: 104 % of control
[3]
  T/C: 103 % of control
[4]
  T/C: 104 % of control
[5]
  T/C: 95 % of control

## COc1ccc2c(c1OC)C(=O)O[C@@H]2[C@H]1c2c(cc3c(c2OC)OCO3)CCN1C
dose: 31.3 mg/kg/injection, schedule: Q01DX010 (ip), vehicle: saline
  T/C: 95 % of control
dose: 62.5 mg/kg/injection, schedule: Q01DX010 (ip), vehicle: saline
  T/C: 104 % of control
dose: 125.0 mg/kg/injection, schedule: Q01DX010 (ip), vehicle: saline
  T/C: 100 % of control
dose: 250.0 mg/kg/injection, schedule: Q01DX010 (ip), vehicle: saline
  T/C: 100 % of control

## COC(=O)c1oc(C(=O)OC)c(OCc2ccccc2)c1OCc1ccccc1
dose: 50.0 mg/kg/injection, schedule: Q01DX001 (ip), vehicle: saline sonified
  T/C: 100 % of control
dose: 100.0 mg/kg/injection, schedule: Q01DX001 (ip), vehicle: saline sonified
  T/C: 109 % of control
dose: 200.0 mg/kg/injection, schedule: Q01DX001 (ip), vehicle: saline sonified
  T/C: 90 % of control

## Nc1nc(=S)c2ncn(C3OC(COC(=O)c4ccccc4)C(OC(=O)c4ccccc4)C3OC(=O)c3ccccc3)c2[nH]1 (stereo not given)
dose: 13.2 mg/kg/injection, schedule: Q01DX009 (ip), vehicle: saline with Tween-80
  T/C: 120 % of control
dose: 33.0 mg/kg/injection, schedule: Q01DX009 (ip), vehicle: saline with Tween-80
  T/C: 154 % of control
dose: 75.0 mg/kg/injection, schedule: Q01DX009 (ip), vehicle: saline with Tween-80
  T/C: 90 % of control
[6]
  T/C: 163 % of control

## CC(C)(C)CC(C)(C)c1ccc(O)cc1
[6]
  T/C: 100 % of control
[7]
  T/C: 115 % of control
dose: 400.0 mg/kg/injection, schedule: Q04DX003 (ip), vehicle: saline
  T/C: 120 % of control

## N#CCCN1c2ccccc2Sc2ccccc21
[8]
  T/C: 110 % of control
[9]
  T/C: 105 % of control
[10]
  T/C: 110 % of control

## COc1ccc2[nH]c3cc(Cl)ccc3c(=O)c2c1
[1]
  T/C: 100 % of control
[3]
  T/C: 100 % of control
dose: 400.0 mg/kg/injection, schedule: Q01DX009 (ip), vehicle: saline with Tween-80
  T/C: 90 % of control

## CCCCNC(C)(C)C(SSSC(C)=O)c1ccco1 (stereo not given)
dose: 3.12 mg/kg/injection, schedule: Q01DX009 (ip), vehicle: saline with Tween-80
  T/C: 88 % of control
dose: 6.25 mg/kg/injection, schedule: Q01DX009 (ip), vehicle: saline with Tween-80
  T/C: 111 % of control
dose: 12.5 mg/kg/injection, schedule: Q01DX009 (ip), vehicle: saline with Tween-80
  T/C: 102 % of control
dose: 25.0 mg/kg/injection, schedule: Q01DX009 (ip), vehicle: saline with Tween-80
  T/C: 101 % of control and 102 % of control
[11]
  T/C: 103 % of control

## Cn1c(=O)n(C)c2ccccc21
dose: 15.0 mg/kg/injection, schedule: Q01DX001 (ip), vehicle: saline
  T/C: 90 % of control
dose: 25.0 mg/kg/injection, schedule: Q01DX001 (ip), vehicle: saline with Tween-80
  T/C: 90 % of control and 100 % of control
dose: 25.0 mg/kg/injection, schedule: Q01DX001 (ip), vehicle: saline
  T/C: 90 % of control
dose: 35.0 mg/kg/injection, schedule: Q01DX001 (ip), vehicle: saline
  T/C: 100 % of control
dose: 50.0 mg/kg/injection, schedule: Q01DX001 (ip), vehicle: saline with Tween-80
  T/C: 104 % of control
dose: 50.0 mg/kg/injection, schedule: Q01DX001 (ip), vehicle: saline
  T/C: 100 % of control
dose: 75.0 mg/kg/injection, schedule: Q01DX001 (ip), vehicle: saline
  T/C: 90 % of control
dose: 100.0 mg/kg/injection, schedule: Q01DX001 (ip), vehicle: saline with Tween-80
  T/C: 90 % of control and 95 % of control
[12]
  T/C: 95 % of control
[13]
  T/C: 91 % of control
[14]
  T/C: 91 % of control

## CC(=O)OC1CCC2(C)C(CCc3ccoc3)=C(C)C(=O)CC2C1(C)C (stereo not given)
dose: 10.0 mg/kg/injection, schedule: Q01DX009 (ip), vehicle: saline + alcohol
  T/C: 105 % of control
dose: 20.0 mg/kg/injection, schedule: Q01DX009 (ip), vehicle: saline + alcohol
  T/C: 115 % of control
dose: 40.0 mg/kg/injection, schedule: Q01DX009 (ip), vehicle: saline + alcohol
  T/C: 105 % of control

## COP(=O)(O)C(Cc1ccccc1)NC(=O)OCc1ccccc1 (stereo not given)
dose: 25.0 mg/kg/injection, schedule: Q01DX005 (ip), vehicle: distilled water + Tween-80
  T/C: 100 % of control
dose: 50.0 mg/kg/injection, schedule: Q01DX005 (ip), vehicle: distilled water + Tween-80
  T/C: 100 % of control
dose: 100.0 mg/kg/injection, schedule: Q01DX005 (ip), vehicle: distilled water + Tween-80
  T/C: 94 % of control

## Nc1nc(=S)c2ncn(C3OC(COC(=O)c4ccc([N+](=O)[O-])cc4)C(OC(=O)c4ccc([N+](=O)[O-])cc4)C3OC(=O)c3ccc([N+](=O)[O-])cc3)c2[nH]1 (stereo not given)
[9]
  T/C: 111 % of control
[12]
  T/C: 91 % of control
[10]
  T/C: 103 % of control
[13]
  T/C: 91 % of control

## CCCCOCN(COCCCC)c1ccccc1Cl
[11]
  T/C: 116 % of control
[1]
  T/C: 107 % of control and 121 % of control

## CCOC(=O)C(Br)C(=O)OCC
dose: 6.25 mg/kg/injection, schedule: Q01DX009 (ip), vehicle: saline
  T/C: 100 % of control
dose: 12.5 mg/kg/injection, schedule: Q01DX009 (ip), vehicle: saline
  T/C: 100 % of control
dose: 12.5 mg/kg/injection, schedule: Q04DX003 (ip), vehicle: saline
  T/C: 110 % of control
dose: 25.0 mg/kg/injection, schedule: Q01DX009 (ip), vehicle: saline
  T/C: 95 % of control
dose: 25.0 mg/kg/injection, schedule: Q04DX003 (ip), vehicle: saline
  T/C: 110 % of control
[15]
  T/C: 86 % of control
[16]
  T/C: 105 % of control

## CCOC(=O)C(C#N)N=Nc1ccccc1 (stereo not given)
[2]
  T/C: 90 % of control
[4]
  T/C: 95 % of control
[5]
  T/C: 90 % of control

## CCCCn1cnc2c(SC)ncnc21
dose: 22.0 mg/kg/injection, schedule: Q04DX003 (ip), vehicle: saline
  T/C: 100 % of control
dose: 33.0 mg/kg/injection, schedule: Q04DX003 (ip), vehicle: saline
  T/C: 104 % of control
[15]
  T/C: 95 % of control
[16]
  T/C: 104 % of control
dose: 75.0 mg/kg/injection, schedule: Q04DX003 (ip), vehicle: saline
  T/C: 113 % of control
dose: 100.0 mg/kg/injection, schedule: Q01DX009 (ip), vehicle: saline
  T/C: 100 % of control
[6]
  T/C: 104 % of control
dose: 200.0 mg/kg/injection, schedule: Q01DX009 (ip), vehicle: saline
  T/C: 104 % of control
[7]
  T/C: 90 % of control

## Cc1ccc(SC2CC3CC2C2COCC32)cc1 (stereo not given)
dose: 25.0 mg/kg/injection, schedule: Q01DX009 (ip), vehicle: Klucel (hydroxypropylcellulose) (HPC)
  T/C: 86 % of control
[8]
  T/C: 95 % of control
[9]
  T/C: 104 % of control

## Cc1noc(/N=C/c2ccccc2)c1C
dose: 100.0 mg/kg/injection, schedule: Q01DX001 (ip), vehicle: Klucel (hydroxypropylcellulose) (HPC)
  T/C: 108 % of control
[12]
  T/C: 95 % of control
dose: 200.0 mg/kg/injection, schedule: Q01DX001 (ip), vehicle: Klucel (hydroxypropylcellulose) (HPC)
  T/C: 104 % of control
[13]
  T/C: 100 % of control and 104 % of control
dose: 400.0 mg/kg/injection, schedule: Q01DX001 (ip), vehicle: Klucel (hydroxypropylcellulose) (HPC)
  T/C: 112 % of control
[14]
  T/C: 91 % of control and 100 % of control

Source: PubChem BioAssay AID328 (DTP/NCI, 2004)
